≈ marks a conversion by molar mass, not a printed value.
How the values were obtained:
Format in all cases: functional
Staphylococcus aureus [1] = test: Bactericidal activity against Staphylococcus aureus ATCC 29213 using sub-cultures from MIC method grown subsequently on Mueller-Hinton agar plates at 37 degC for 24 hrs; conditions: ATCC 29213, 24 h
Staphylococcus aureus [2] = test: Antimicrobial activity against Staphylococcus aureus ATCC 29213 by broth microdilution method
[3] = tested on: Staphylococcus epidermidis; test: Antibiofilm activity against Staphylococcus epidermidis ATCC 12228 biofilms incubated at 37 degC for 16 hrs; conditions: ATCC 12228, 16 h
[4] = tested on: Staphylococcus epidermidis; test: Antimicrobial activity against Staphylococcus epidermidis ATCC 12228 using sub-cultures from MIC method grown subsequently on Mueller-Hinton agar plates at 37 degC for 24 hrs; conditions: ATCC 12228, 24 h
Enterococcus faecalis [5] = test: Antimicrobial activity against Enterococcus faecalis ATCC 29212 using sub-cultures from MIC method grown subsequently on Mueller-Hinton agar plates at 37 degC for 24 hrs; conditions: ATCC 29212, 24 h
Staphylococcus aureus [6] = test: Antibiofilm activity against Staphylococcus aureus ATCC 29213 biofilms incubated at 37 degC for 16 hrs; conditions: ATCC 29213, 16 h
Enterococcus faecalis [7] = test: Antibiofilm activity against Enterococcus faecalis ATCC 29212 biofilms incubated at 37 degC for 16 hrs; conditions: ATCC 29212, 16 h
[8] = tested on: Staphylococcus epidermidis; test: Antimicrobial activity against Staphylococcus epidermidis ATCC 12228 by broth microdilution method
Enterococcus faecalis [9] = test: Antimicrobial activity against Enterococcus faecalis ATCC 29212 by broth microdilution method
Staphylococcus aureus [10] = test: Potency index, ratio of MIC for vancomycin to MIC for compound against Staphylococcus aureus ATCC 29213 biofilms incubated at 37 degC for 16 hrs

Row | Compound | MBC (Staphylococcus aureus [1]) [µg/mL] | MIC (Staphylococcus aureus [2]) [µg/mL] | MIC [3] [µg/mL] | MBC [4] [µg/mL] | MBC (Enterococcus faecalis [5]) [µg/mL] | MIC (Staphylococcus aureus [6]) [µg/mL] | MIC (Enterococcus faecalis [7]) [µg/mL] | MIC [8] [µg/mL] | MIC (Enterococcus faecalis [9]) [µg/mL] | Ratio (Staphylococcus aureus [10])
1 | COc1ccc(C2SCC(=O)N2NC(=O)c2cc(Br)c(Br)n2C)cc1O (stereo not given) | 6.25 (≈ 12.4 µM) | 1.56 (≈ 3.09 µM) | 3.12 (≈ 6.19 µM) | 6.25 (≈ 12.4 µM) | 12.5 (≈ 24.7 µM) | 3.12 (≈ 6.19 µM) | 12.5 (≈ 24.7 µM) | 1.56 (≈ 3.09 µM) | 3.12 (≈ 6.19 µM) | 
2 | COc1ccc(C2SCC(=O)N2NC(=O)c2cc(Br)c(Br)n2C)cc1 (stereo not given) | 6.25 (≈ 12.8 µM) | 0.78 (≈ 1.59 µM) | 3.12 (≈ 6.39 µM) | 3.12 (≈ 6.39 µM) | 25 (≈ 51.1 µM) | 0.78 (≈ 1.59 µM) | 6.25 (≈ 12.8 µM) | 1.56 (≈ 3.19 µM) | 6.25 (≈ 12.8 µM) | 3
3 | Cn1c(C(=O)NN2C(=O)CCSC2c2ccccc2)cc(Br)c1Br (stereo not given) | 6.25 (≈ 13.2 µM) | 12.5 (≈ 26.4 µM) | 12.5 (≈ 26.4 µM) | 12.5 (≈ 26.4 µM) | 100 (≈ 211 µM) | 12.5 (≈ 26.4 µM) | 25 (≈ 52.8 µM) | 6.25 (≈ 13.2 µM) | 50 (≈ 106 µM) | 
4 | Cn1c(C(=O)NN2C(=O)CSC2c2ccc([N+](=O)[O-])cc2)cc(Br)c1Br (stereo not given) | 6.25 (≈ 12.4 µM) | 0.78 (≈ 1.55 µM) | 3.12 (≈ 6.2 µM) | 6.25 (≈ 12.4 µM) | 25 (≈ 49.6 µM) | 0.78 (≈ 1.55 µM) | 12.5 (≈ 24.8 µM) | 1.56 (≈ 3.09 µM) | 12.5 (≈ 24.8 µM) | 3
5 | Cn1c(C(=O)NN2C(=O)CSC2c2ccc(Cl)cc2)cc(Br)c1Br (stereo not given) | 3.12 (≈ 6.33 µM) | 0.78 (≈ 1.58 µM) | 3.12 (≈ 6.33 µM) | 3.12 (≈ 6.33 µM) | 25 (≈ 50.6 µM) | 1.56 (≈ 3.16 µM) | 12.5 (≈ 25.3 µM) | 1.56 (≈ 3.16 µM) | 12.5 (≈ 25.3 µM) | 2
6 | CN[C@H](CC(C)C)C(=O)N[C@H]1C(=O)N[C@@H](CC(N)=O)C(=O)N[C@H]2C(=O)N[C@H]3C(=O)N[C@H](C(=O)N[C@H](C(=O)O)c4cc(O)cc(O)c4-c4cc3ccc4O)[C@H](O)c3ccc(c(Cl)c3)Oc3cc2cc(c3O[C@@H]2O[C@H](CO)[C@@H](O)[C@H](O)[C@H]2O[C@H]2C[C@](C)(N)[C@H](O)[C@H](C)O2)Oc2ccc(cc2Cl)[C@H]1O [VANCOMYCIN] | 3.12 (≈ 2.16 µM) |  | 3.12 (≈ 2.16 µM) | 3.12 (≈ 2.16 µM) | 6.25 (≈ 4.31 µM) | 3.12 (≈ 2.16 µM) | 3.12 (≈ 2.16 µM) |  | 3.12 (≈ 2.16 µM) | 
7 | Cn1c(C(=O)NN2C(=O)CCSC2c2cc(O)ccc2O)cc(Br)c1Br (stereo not given) | 12.5 (≈ 24.7 µM) | 3.12 (≈ 6.19 µM) | 12.5 (≈ 24.7 µM) | 12.5 (≈ 24.7 µM) | 50 (≈ 99 µM) | 6.25 (≈ 12.4 µM) | 25 (≈ 49.5 µM) | 6.25 (≈ 12.4 µM) | 25 (≈ 49.5 µM) | 
8 | Cn1c(C(=O)NN2C(=O)CSC2c2ccc(F)cc2)cc(Br)c1Br (stereo not given) | 3.12 (≈ 6.55 µM) | 0.78 (≈ 1.63 µM) | 3.12 (≈ 6.55 µM) | 3.12 (≈ 6.55 µM) | 12.5 (≈ 26.2 µM) | 1.56 (≈ 3.27 µM) | 12.5 (≈ 26.2 µM) | 1.56 (≈ 3.27 µM) | 3.12 (≈ 6.54 µM) | 2
9 | Cn1c(C(=O)NN2C(=O)CSC2c2cc(O)ccc2O)cc(Br)c1Br (stereo not given) | 3.12 (≈ 6.36 µM) | 0.78 (≈ 1.59 µM) | 3.12 (≈ 6.36 µM) | 3.12 (≈ 6.36 µM) | 12.5 (≈ 25.4 µM) | 1.56 (≈ 3.18 µM) | 12.5 (≈ 25.4 µM) | 1.56 (≈ 3.18 µM) | 6.25 (≈ 12.7 µM) | 2
10 | Cn1c(C(=O)NN2C(=O)CSC2c2ccccc2)cc(Br)c1Br (stereo not given) | 6.25 (≈ 13.6 µM) | 1.56 (≈ 3.4 µM) | 12.5 (≈ 27.2 µM) | 6.25 (≈ 13.6 µM) | 25 (≈ 54.4 µM) | 3.12 (≈ 6.81 µM) | 12.5 (≈ 27.2 µM) | 3.12 (≈ 6.81 µM) | 12.5 (≈ 27.2 µM) | 
11 | Cn1c(C(=O)NN2C(=O)CCSC2c2ccc(F)cc2)cc(Br)c1Br (stereo not given) | 12.5 (≈ 25.4 µM) | 3.12 (≈ 6.36 µM) | 12.5 (≈ 25.4 µM) | 12.5 (≈ 25.4 µM) | 50 (≈ 102 µM) | 6.25 (≈ 12.7 µM) | 25 (≈ 50.9 µM) | 6.25 (≈ 12.7 µM) | 25 (≈ 50.9 µM) | 
12 | Cn1c(C(=O)NN2C(=O)CCSC2c2ccc([N+](=O)[O-])cc2)cc(Br)c1Br (stereo not given) | 6.25 (≈ 12.1 µM) | 3.12 (≈ 6.03 µM) | 12.5 (≈ 24.1 µM) | 12.5 (≈ 24.1 µM) | 50 (≈ 96.5 µM) | 6.25 (≈ 12.1 µM) | 25 (≈ 48.2 µM) | 6.25 (≈ 12.1 µM) | 50 (≈ 96.5 µM) | 
13 | COc1ccc(C2SCCC(=O)N2NC(=O)c2cc(Br)c(Br)n2C)c(O)c1 (stereo not given) | 6.25 (≈ 12 µM) | 3.12 (≈ 6.02 µM) | 12.5 (≈ 24.1 µM) | 12.5 (≈ 24.1 µM) | 50 (≈ 96.3 µM) | 6.25 (≈ 12 µM) | 25 (≈ 48.1 µM) | 6.25 (≈ 12 µM) | 25 (≈ 48.1 µM) | 
14 | Cn1c(C(=O)NN2C(=O)CCSC2c2ccc(Cl)cc2)cc(Br)c1Br (stereo not given) | 12.5 (≈ 24.6 µM) | 3.12 (≈ 6.16 µM) | 12.5 (≈ 24.6 µM) | 12.5 (≈ 24.6 µM) | 50 (≈ 98.5 µM) | 6.25 (≈ 12.3 µM) | 25 (≈ 49.2 µM) | 6.25 (≈ 12.3 µM) | 25 (≈ 49.2 µM) | 
15 | COc1ccc(C2SCCC(=O)N2NC(=O)c2cc(Br)c(Br)n2C)cc1O (stereo not given) | 6.25 (≈ 12 µM) | 3.12 (≈ 6.02 µM) | 12.5 (≈ 24.1 µM) | 12.5 (≈ 24.1 µM) | 50 (≈ 96.3 µM) | 6.25 (≈ 12 µM) | 25 (≈ 48.1 µM) | 6.25 (≈ 12 µM) | 25 (≈ 48.1 µM) | 
16 | COc1ccc(C2SCCC(=O)N2NC(=O)c2cc(Br)c(Br)n2C)cc1 (stereo not given) | 6.25 (≈ 12.4 µM) | 3.12 (≈ 6.21 µM) | 12.5 (≈ 24.8 µM) | 12.5 (≈ 24.8 µM) | 100 (≈ 199 µM) | 6.25 (≈ 12.4 µM) | 25 (≈ 49.7 µM) | 6.25 (≈ 12.4 µM) | 50 (≈ 99.4 µM) | 
17 | Cn1c(C(=O)NN2C(=O)CCSC2C/C=C/c2ccccc2)cc(Br)c1Br (stereo not given) | 50 (≈ 97.4 µM) | 12.5 (≈ 24.4 µM) | 25 (≈ 48.7 µM) | 12.5 (≈ 24.4 µM) | 50 (≈ 97.4 µM) | 25 (≈ 48.7 µM) | 50 (≈ 97.4 µM) | 6.25 (≈ 12.2 µM) | 25 (≈ 48.7 µM) | 
18 | Cn1c(C(=O)NN2C(=O)CSC2C/C=C/c2ccccc2)cc(Br)c1Br (stereo not given) | 12.5 (≈ 25 µM) | 6.25 (≈ 12.5 µM) | 6.25 (≈ 12.5 µM) | 12.5 (≈ 25 µM) | 12.5 (≈ 25 µM) | 6.12 (≈ 12.3 µM) | 6.25 (≈ 12.5 µM) | 25 (≈ 50.1 µM) | 25 (≈ 50.1 µM) | 
19 | COc1ccc(C2SCC(=O)N2NC(=O)c2cc(Br)c(Br)n2C)c(O)c1 (stereo not given) | 6.25 (≈ 12.4 µM) | 0.78 (≈ 1.54 µM) | 3.12 (≈ 6.19 µM) | 3.12 (≈ 6.19 µM) | 25 (≈ 49.5 µM) | 1.56 (≈ 3.09 µM) | 12.5 (≈ 24.7 µM) | 1.56 (≈ 3.09 µM) | 12.5 (≈ 24.7 µM) | 2

Source: ChEMBL document CHEMBL2203132, “Synthesis and antibiofilm activity of marine natural product-based 4-thiazolidinones derivatives” (2012)
